Among the data in patent US11312706B2, “Cyclohexyl acid pyrazole azines as LPA antagonists” (BRISTOL-MYERS SQUIBB COMPANY, priority 2017, dated 2022) are IC50 values, retold here.

This experiment has as its target T1, human LPA1 (Homo sapiens, UniProt Q92633).
T1 construct: expressed in transfected cells; host or cells: Chinese hamster ovary (CHO) cells
Nature of the experiment: LPA1 functional antagonist assay (LPA-induced calcium flux). The experiment is classed as cell-based. Particulars: CHO cells overexpressing human LPA1, 10 nM LPA, read-out: hLPA1 IC50. As for the experimental part: The effectiveness of compounds of the present invention as LPA1 inhibitors can be determined in an LPA1 functional antagonist assay as follows:
Chinese hamster ovary cells overexpressing human LPA1 were plated overnight (15,000 cells/well) in poly-D-lysine coated 384-well microplates (Greiner bio-one, Cat #781946) in DMEM/F12 medium (Gibco, Cat #11039). Following overnight culture, cells were loaded with calcium indicator dye (AAT Bioquest Inc, Cat #34601) for 30 minutes at 37° C. The cells were then equilibrated to room temperature for 30 minutes before the assay. Test compounds solubilized in DMSO were transferred to 384 well non-binding surface plates (Corning, Cat #3575) using the Labcyte Echo acoustic dispense and diluted with assay buffer [1×HBSS with calcium/magnesium (Gibco Cat #14025-092), 20 mM HEPES (Gibco Cat #15630-080) and 0.1% fatty acid free BSA (Sigma Cat #A9205)] to a final concentration of 0.5% DMSO. Diluted compounds were added to the cells by FDSS6000 (Hamamatsu) at final concentrations ranging from 0.08 nM to 5 μM. and were then incubated for 20 min at room temperature at which time LPA (Avanti Polar Lipids Cat #857130C) was added at final concentrations of 10 nM to stimulate the cells. The compound IC50 value was defined as the concentration of test compound which inhibited 50% of the calcium flux induced by LPA alone. IC50 values were determined by fitting data to a 4-parameter logistic equation (GraphPad Prism, San Diego Calif.).

T1 sequence (Q92633 whole entry): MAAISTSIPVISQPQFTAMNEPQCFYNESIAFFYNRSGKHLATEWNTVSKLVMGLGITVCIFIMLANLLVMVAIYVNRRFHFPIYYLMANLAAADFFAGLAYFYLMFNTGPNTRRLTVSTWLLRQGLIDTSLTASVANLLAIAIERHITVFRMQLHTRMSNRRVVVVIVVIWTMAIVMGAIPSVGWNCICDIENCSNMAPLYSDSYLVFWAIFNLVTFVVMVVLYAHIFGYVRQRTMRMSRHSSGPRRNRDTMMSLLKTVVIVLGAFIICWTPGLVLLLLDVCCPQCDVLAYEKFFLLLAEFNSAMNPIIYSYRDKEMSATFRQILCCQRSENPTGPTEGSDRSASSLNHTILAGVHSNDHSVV

Take `Cc1nc(-c2cnn(C)c2CNc2ncnc(C3CCCC3)n2)ncc1O[C@H]1CCC[C@H](C(=O)O)C1` [Example 15, (1S,3S)-3-((2-(5-(((4-cyclopenty1-1,3,5-triazin-2-yl)amino)methyl)-1-methyl-1H-pyrazol-4-yl)-4-methylpyrimidin-5-yl)oxy)cyclohexane carboxylic acid]: the IC50 was 148 nM.

Consider `CCc1nc(-c2cnn(C)c2CNc2nccc(OC)n2)ncc1O[C@H]1CCC[C@H](C(=O)O)C1` [Example 24, (1S,3S)-3-((4-ethyl-2-(5-(((4-methoxypyrimidin-2-yl)amino)methyl)-1-methyl-1H-pyrazol-4-yl)pyrimidin-5-yl)oxy)cyclohexane-1-carboxylic acid], for which the IC50 is 350 nM.

In the case of `Cc1nc(-c2cnn(C)c2CNc2nccc(-c3ccccc3)n2)ccc1O[C@H]1CCC[C@H](C(=O)O)C1` [Example 4, (1S,3S)-3-((2-methyl-6-(1-methyl-5-(((4-phenylpyrimidin-2-yl)amino)methyl)-1H-pyrazol-4-yl)pyridin-3-yl)oxy)cyclohexanecarboxylic acid], the IC50 came to 54 nM. In the case of `Cn1ncc(-c2ccc(O[C@H]3CCC[C@H](C(=O)O)C3)cn2)c1Nc1cccc(-c2cccc(F)c2)n1` [Example 42, (1S,3S)-3-{[6-(5-{[6-(3-fluorophenyl)pyridin-2-yl]amino}-1-methyl-1H-pyrazol-4-yl)pyridin-3-yl]oxy}cyclohexane-1-carboxylic acid], the half-maximal inhibitory concentration (IC50) is 137 nM. Regarding `CCCOc1ccnc(NCc2c(-c3ncc(O[C@H]4CCC[C@H](C(=O)O)C4)c(CC)n3)cnn2C)n1` [Example 23, (1S,3S)-3-((4-ethyl-2-(1-methyl-5-(((4-propoxypyrimidin-2-yl)amino)methyl)-1H-pyrazol-4-yl)pyrimidin-5-yl)oxy) cyclohexane-1-carboxylic acid], the IC50 was determined as 2 nM. In the case of `Cc1nc(-c2cnn(C)c2CNc2nccc(OC(C)C)n2)ncc1O[C@H]1CCC[C@H](C(=O)O)C1` [Example 2, (1S,3S)-3-((2-(5-(((4-Isopropoxypyrimidin-2-yl)amino)methyl)-1-methyl-1H-pyrazol-4-yl)-4-methylpyrimidin-5-yl)oxy)cyclohexane-1-carboxylic acid], the IC50 is 29 nM.

For the compound `Cc1cc(-c2ccccn2)nc(NCc2c(-c3ccc(O[C@H]4CCC[C@H](C(=O)O)C4)c(C)n3)cnn2C)n1` [Example 5, (1S,3S)-3-((2-methyl-6-(1-methyl-5-(((4-methyl-6-(pyridin-2-yl)pyrimidin-2-yl)amino)methyl)-1H-pyrazol-4-yl)pyridin-3-yl)oxy)cyclohexanecarboxylic acid], the half-inhibitory concentration (IC50) is 217 nM.

Turning to `CCNc1nc(NCc2c(-c3ncc(O[C@H]4CCC[C@H](C(=O)O)C4)c(C)n3)cnn2C)ncc1F` [Example 38, (1S,3S)-3-((2-(5-(((4-(ethylamino)-5-fluoropyrimidin-2-yl)amino)methyl)-1-methyl-1H-pyrazol-4-yl)-4-methylpyrimidin-5-yl)oxy)cyclohexane-1-carboxylic acid], the IC50 was determined as 41 nM. The same measure for `CCc1ccnc(NCc2c(-c3ncc(O[C@H]4CCC[C@H](C(=O)O)C4)c(C)n3)cnn2C)n1` [Example 35, (1S,3S)-3-((2-(5-(((4-ethylpyrimidin-2-yl)amino)methyl)-1-methyl-1H-pyrazol-4-yl)-4-methylpyrimidin-5-yl)oxy)cyclohexane-1-carboxylic acid]: 207 nM; for `CCc1nc(-c2cnn(C)c2CNc2nccc(OCC(C)(F)F)n2)ncc1O[C@H]1CCC[C@H](C(=O)O)C1` [Example 26]: 15 nM; for `Cc1nc(-c2cnn(C)c2CNc2nccc(C(C)C)n2)ncc1O[C@H]1CCC[C@H](C(=O)O)C1` [Example 10, (1S,3S)-3-((2-(5-(((4-isopropyl-pyrimidin-2-yl)amino)methyl)-1-methyl-1H-pyrazol-4-yl)-4-methyl-pyrimidin-5-yl)oxy)cyclohexane carboxylic acid]: 47 nM.

`CCc1nc(-c2cnn(C)c2CNc2nccc(OCCOC)n2)ncc1O[C@H]1CCC[C@H](C(=O)O)C1` [Example 27, (1S,3S)-3-((4-ethyl-2-(5-(((4-(2-methoxyethoxy)pyrimidin-2-yl)amino)methyl)-1-methyl-1H-pyrazol-4-yl)pyrimidin-5-yl)oxy)cyclohexane-1-carboxylic acid]: the IC50 worked out at 61 nM.

With `Cc1nc(-c2cnn(C)c2CNc2nccc(-c3ccccn3)n2)ncc1O[C@H]1CCC[C@H](C(=O)O)C1` [Example 17, (1S,3S)-3-((4-methyl-2-(1-methyl-5-(((4-(pyridin-2-yl)pyrimidin-2-yl)amino)methyl)-1H-pyrazol-4-yl)pyrimidin-5-yl)oxy)cyclohexane-1-carboxylic acid], the concentration for half-maximal inhibition (IC50) came out at 79 nM. The figure for `CCOc1ccnc(NCc2c(-c3ncc(O[C@H]4CCC[C@H](C(=O)O)C4)c(CC)n3)cnn2C)n1` [Example 21, (1S,3S)-3-((2-(5-(((4-ethoxypyrimidin-2-yl)amino)methyl)-1-methyl-1H-pyrazol-4-yl)-4-ethylpyrimidin-5-yl)oxy)cyclohexane-1-carboxylicacid] is 5 nM; for `CCCOc1ccnc(Nc2c(-c3ncc(O[C@H]4CCC[C@H](C(=O)O)C4)c(C)n3)cnn2C)n1` [Example 20, (1S,3S)-3-((4-methyl-2-(1-methyl-5-((4-propoxypyrimidin-2-yl)amino)-1H-pyrazol-4-yl)pyrimidin-5-yl)oxy)cyclohexane-1-carboxylic acid] it is 1230 nM. The figure for `Cc1nc(-c2cnn(C)c2CNc2ncnc(C(C)C)n2)ncc1O[C@H]1CCC[C@H](C(=O)O)C1` [Example 43, (1S,3S)-3-((2-(5-(((4-isopropyl-1,3,5-triazin-2-yl)amino)methyl)-1-methyl-1H-pyrazol-4-yl)-4-methylpyrimidin-5-yl)oxy)cyclohexane-1-carboxylic acid] is 28 nM; for `Cc1nc(-c2cnn(C)c2CNc2nccc(OC3CC3)n2)ncc1O[C@H]1CCC[C@H](C(=O)O)C1` [Example 7, (1S,3S)-3-((2-(5-(((4-cyclopropoxy-pyrimidin-2-yl)amino)methyl)-1-methyl-1H-pyrazol-4-yl)-4-methylpyrimidin-5-yl)oxy)cyclohexane-1-carboxylic acid] it is 22 nM. The figure for `Cc1nc(-c2cnn(C)c2Nc2nccc(OC(C)C)n2)ncc1O[C@H]1CCC[C@H](C(=O)O)C1` [Example 18, (S,3S)-3-((2-(5-((4-isopropoxypyrimidin-2-yl)amino)-1-methyl-1H-pyrazol-4-yl)-4-methyl-pyrimidin-5-yl)oxy)cyclohexane-1-carboxylic acid] is 1010 nM; for `Cc1nc(-c2cnn(C)c2CNc2ccnc(OC3CC(F)(F)C3)n2)ncc1O[C@H]1CCC[C@H](C(=O)O)C1` [Example 32, (1S,3S)-3-((2-(5-(((2-(3,3-difluorocyclobutoxy)pyrimidin-4-yl)amino)methyl)-1-methyl-1H-pyrazol-4-yl)-4-methylpyrimidin-5-yl)oxy)cyclohexane-1-carboxylic acid] it is 619 nM.

`Cn1ncc(-c2ccc(O[C@H]3CCC[C@H](C(=O)O)C3)cn2)c1COc1cccc(-c2ccccc2)c1` (relative stereo) [Example 30, Trans-3-((6-(5-(([1,1′-biphenyl]-3-yloxy)methyl)-1-methyl-1H-pyrazol-4-yl)pyridin-3-yl)oxy)cyclohexane-1-carboxylicacid]: the IC50 was determined as 104 nM. The same measure for `Cc1nc(-c2cnn(C)c2CNc2nccc(C3CC3)n2)ncc1O[C@H]1CCC[C@H](C(=O)O)C1` [Example 12, (1S,3S)-3-((2-(5-(((4-cyclopropyl-pyrimidin-2-yl)amino)methyl)-1-methyl-1H-pyrazol-4-yl)-4-methyl-pyrimidin-5-yl)oxy)cyclohexane-1-carboxylic acid]: 172 nM; for `Cc1nc(-c2cnn(C)c2CNc2nccc(OCC(F)F)n2)ncc1O[C@H]1CCC[C@H](C(=O)O)C1` [Example 40, (1S,3S)-3-((2-(5-(((4-(2,2-difluoroethoxy)pyrimidin-2-yl)amino)methyl)-1-methyl-1H-pyrazol-4-yl)-4-methylpyrimidin-5-yl)oxy)cyclohexane-1-carboxylic acid]: 2.7 nM. The figure for `Cc1nc(-c2cnn(C)c2CNc2nccc(C(C)(C)C)n2)ncc1O[C@H]1CCC[C@H](C(=O)O)C1` [Example 11, (1S,3S)-3-((2-(5-(((4-(tert-butyl)pyrimidin-2-yl)amino)methyl)-1-methyl-1H-pyrazol-4-yl)-4-methyl-pyrimidin-5-yl)oxy)cyclohexane carboxylic acid] is 50 nM; for `COc1ccnc(NCc2c(-c3ncc(O[C@H]4CCC[C@H](C(=O)O)C4)c(C)n3)cnn2C)n1` [Example 6, (1S,3S)-3-((2-(5-(((4-methoxy-pyrimidin-2-yl)amino)methyl)-1-methyl-1H-pyrazol-4-yl)-4-methylpyrimidin-5-yl)oxy)cyclohexane-1-carboxylic acid] it is 74 nM. Regarding `CCCNc1nc(NCc2c(-c3ncc(O[C@H]4CCC[C@H](C(=O)O)C4)c(C)n3)cnn2C)ncc1F` [Example 37, (1S,3S)-3-((2-(5-(((5-fluoro-4-(propylamino)pyrimidin-2-yl)amino)methyl)-1-methyl-1H-pyrazol-4-yl)-4-methylpyrimidin-5-yl)oxy)cyclohexane-1-carboxylic acid], the IC50 was 13 nM.
